Experimental findings from the OligoGym collection are described below.

This data set deals with DGAT2. Conditions: ASO.

Values joined by “and” are separate entries in the source; they are usually repeats but may differ in a detail not shown here. Equal entries are not always repeated. After the bases stand the sugars from the 5' end (letter, count) and the backbone: PS all phosphorothioate, else s phosphorothioate and o phosphodiester by linkage. Methylation of C is not given here. e = 2'-O-(2-methoxyethyl) (MOE); d = 2'-deoxy (DNA)

“TCTGGACCCATCGGCCCCAG (sugars e5 d10 e5, PS)” yielded a target mRNA inhibition (HepG2, 0.12 µM) of 20%.

As for “AGTTTGCTCAGTTCTTCCAA (sugars e5 d10 e5, PS)”, the target mRNA inhibition is, setting by setting: (HepG2, 2.5 µM) 61%; (HepG2, 10 µM) 91%.

For “ATAGGCCTGGATGCCCAAGT (sugars e5 d10 e5, PS)”, the target mRNA inhibition runs as follows: (HepG2, 2.5 µM) 49%; (HepG2, 10 µM) 88%.

Take “AAGCCTCGGTGTCCTCTCCT (sugars e5 d10 e5, PS)”: the target mRNA inhibition is 50% (HepG2, 2.5 µM) and 87% (HepG2, 10 µM).

“CAGTGCCCCATCTCCCAGAC (sugars e5 d10 e5, PS)”: the target mRNA inhibition (HepG2, 0.12 µM) was determined as 0%.

Regarding “CTTCACCAGGGCCTCCATGT (sugars e5 d10 e5, PS)”, the target mRNA inhibition stood at 46% (HepG2, 0.12 µM); 10% (HepG2, 2.5 µM); 66% (HepG2, 10 µM); 87% (HepG2, 20 µM).

As for “ATGGGAATGGTATCGCACTC (sugars e5 d10 e5, PS)”, the target mRNA inhibition (HepG2, 2.5 µM) was 57% and 72%; the target mRNA inhibition (HepG2, 10 µM) was 80% and 96%.

For the sequence “AAGAGCTTCACCAGGGCCTC (sugars e5 d10 e5, PS)”, the target mRNA inhibition by setting is: (HepG2, 0.12 µM) 44%; (HepG2, 2.5 µM) 10% and 22%; (HepG2, 10 µM) 83%; (HepG2, 20 µM) 92%.

Consider “CTCCCATTCTTTGAAAGCAA (sugars e5 d10 e5, PS)”, for which the target mRNA inhibition came to 30% (HepG2, 2.5 µM) and 54% (HepG2, 10 µM).

“AAACCCTCGACTGAGTGTGA (sugars e5 d10 e5, PS)” showed a target mRNA inhibition (HepG2, 0.12 µM) of 37%.

In the case of “GGCATGGAGCTCAGAGACTC (sugars e5 d10 e5, PS)”, the target mRNA inhibition runs as follows: (HepG2, 0.12 µM) 77%; (HepG2, 2.5 µM) 25%; (HepG2, 10 µM) 76%; (HepG2, 20 µM) 49%.

“GGGCTAATACCTACCTCACC (sugars e5 d10 e5, PS)” displayed a target mRNA inhibition (HepG2, 2.5 µM) of 53% and a target mRNA inhibition (HepG2, 10 µM) of 74%.

For the sequence “GCCTGGACAAGTCCTGC (sugars e3 d10 e4, PS)”, the target mRNA inhibition by setting is: (HepG2, 2.5 µM) 68% and 75%; (HepG2, 10 µM) 89% and 97%.

For the sequence “CCCCTCGCGCGACAGCGCAG (sugars e5 d10 e5, PS)”, where the note is “HepG2, 0.12 µM”, the target mRNA inhibition turned out to be 25%.

Take “TCCTATCAGTTAGCAGTGCA (sugars e5 d10 e5, PS)”: the target mRNA inhibition (HepG2, 2.5 µM) is 81% and 68%; the target mRNA inhibition (HepG2, 10 µM) is 86% and 83%.

“TGATAGCATTGCCACTCCCA (sugars e5 d10 e5, PS)”: where the note is “HepG2, 0.12 µM”, the target mRNA inhibition stood at 64%.

In turn, “TGAGTAGTCAAAGGTGGCTT (sugars e5 d10 e5, PS)” returned a target mRNA inhibition (HepG2, 0.12 µM) of 30%.

“GGATGCTGGATCCAGTGCCC (sugars e5 d10 e5, PS)”: the target mRNA inhibition (HepG2, 0.12 µM) stood at 32%.

Consider “GCATGGAGCTCAGAGACTCA (sugars e2 d13 e5, PS)”, for which, where the note is “HepG2, 0.12 µM”, the target mRNA inhibition worked out at 77%.

Sequence “GTTCTTGGGCCTAAAGGTGA (sugars e5 d10 e5, PS)” returned a target mRNA inhibition (HepG2, 0.12 µM) of 34%.

With “AGGCCCCTTCTGAAGAGGGA (sugars e5 d10 e5, PS)”, for the setting “HepG2, 0.12 µM”, the target mRNA inhibition worked out at 43%.

“TTCTTCTGGACCCATCGGCC (sugars e5 d10 e5, PS)” registered a target mRNA inhibition (HepG2, 0.12 µM) of 44%.

Take “AGATATAGTTCCTGGTGGTC (sugars e5 d10 e5, PS)”: where the note is “HepG2, 0.12 µM”, the target mRNA inhibition is 56%.

As to “AGTCCAAACACTCAGGTAGG (sugars e5 d10 e5, PS)”, the target mRNA inhibition stood at 66% (HepG2, 2.5 µM) and 79% (HepG2, 10 µM).

Take “TGGTGGTTGCAATGTTGCCA (sugars e5 d10 e5, PS)”: the target mRNA inhibition was 88% and 80% (HepG2, 2.5 µM); 92% and 91% (HepG2, 10 µM).

“TATAGTTCCTGGTGGTCAGC (sugars e5 d10 e5, PS)” showed a target mRNA inhibition (HepG2, 0.12 µM) of 56%.

“CTGGACAAGTCCTGCCCATC (sugars e3 d14 e3, PS)” yielded a target mRNA inhibition (HepG2, 0.12 µM) of 67%.

Regarding “CGGACTGAATGTCACCTCTT (sugars e5 d10 e5, PS)”, the target mRNA inhibition is 74% and 73% (HepG2, 2.5 µM); 90% and 76% (HepG2, 10 µM).

“CAGGTTGTGTGTCTTCACCA (sugars e3 d14 e3, PS)” had a target mRNA inhibition (HepG2, 0.12 µM) of 68%.

In turn, “TATTTCTGGAACTTCTTCTG (sugars e5 d10 e5, PS)” returned a target mRNA inhibition (HepG2, 0.12 µM) of 22%.

Take “AAATCCATGTCAGAGAGGCT (sugars e5 d10 e5, PS)”: the target mRNA inhibition (HepG2, 2.5 µM) is 64% and the target mRNA inhibition (HepG2, 10 µM) was determined as 92%.

For the setting “HepG2, 0.12 µM”, “CCAGGTAAGGCCGTATGCCT (sugars e2 d13 e5, PS)” had a target mRNA inhibition of 64%.

As for “TTTCCCATGGGAGAAGATAA (sugars e5 d10 e5, PS)”, for the setting “HepG2, 0.12 µM”, the target mRNA inhibition amounted to 55%.

Sequence “GCTTCTTGGGCATCTGCTAG (sugars e5 d10 e5, PS)” showed a target mRNA inhibition (HepG2, 2.5 µM) of 74% and a target mRNA inhibition (HepG2, 10 µM) of 82%.

With “ACTGAGATGACCTGTAGCTG (sugars e5 d10 e5, PS)”, the target mRNA inhibition (HepG2, 0.12 µM) is 33%.

Consider “GGCAGAGAAACTGGTCCTGC (sugars e5 d10 e5, PS)”, for which the target mRNA inhibition runs as follows: (HepG2, 2.5 µM) 55%; (HepG2, 10 µM) 81%.

As for “CCAGGGCCTCCATGTACATG (sugars e3 d14 e3, PS)”, the target mRNA inhibition came out at 86% (HepG2, 0.12 µM); 59% (HepG2, 10 µM); 41% (HepG2, 20 µM).
